Values of other authors, collected in patent US20160184332A1, “MEDICAMENT COMPRISING A PHARMACEUTICAL COMBINATION OF DRUGS” (priority 2013, published 2016).

Columns and labels:
CYP3A4 = CYP3A4 (Homo sapiens, UniProt P08684); conditions: minor route; primary route of metabolism is glucuronidation
[1] = tested on: cytochrome P450 (CYP) isozymes; conditions: in vitro
[2] = tested on: human CYP 450 isoenzymes: 1A2, 2A6, 2B6, 2C9, 2C19, 2D6 and 3A4
[3] = tested on: uridine-5-5′-diphosphoglucuronyl transferase; conditions: enzyme responsible for glucuronidation

Sequence of CYP3A4 (P08684 whole entry): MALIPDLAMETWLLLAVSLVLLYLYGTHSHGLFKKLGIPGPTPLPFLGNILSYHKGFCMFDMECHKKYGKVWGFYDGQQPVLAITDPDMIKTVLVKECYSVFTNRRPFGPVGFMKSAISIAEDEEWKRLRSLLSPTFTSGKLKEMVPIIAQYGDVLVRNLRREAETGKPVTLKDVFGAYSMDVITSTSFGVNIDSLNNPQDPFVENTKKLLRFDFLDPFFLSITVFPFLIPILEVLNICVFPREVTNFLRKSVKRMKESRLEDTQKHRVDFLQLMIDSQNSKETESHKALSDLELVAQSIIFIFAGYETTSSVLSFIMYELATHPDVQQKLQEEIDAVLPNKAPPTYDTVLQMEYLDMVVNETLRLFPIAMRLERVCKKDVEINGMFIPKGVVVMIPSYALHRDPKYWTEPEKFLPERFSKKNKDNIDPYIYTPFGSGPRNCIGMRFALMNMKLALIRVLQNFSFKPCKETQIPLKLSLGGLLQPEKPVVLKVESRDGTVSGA

extent to which it is a substrate of CYP3A4 (CYP3A4) | induction or inhibition of cytochrome P450 (CYP) isozymes [1] | inhibition of in vitro drug metabolism mediated by human CYP 450 isoenzymes [2] | inhibition of uridine-5-5′-diphosphoglucuronyl transferase [3] | Structure (SMILES)
about 15% | demonstrates induction or inhibition | – | – | C[C@@H]1CCO[C@H]2Cn3cc(C(=O)NCc4ccc(F)cc4F)c(=O)c(O)c3C(=O)N12 [dolutegravir, (4R,12aS)—N-(2,4-difluorobenzyl)-7-hydroxy-4-methyl-6,8-dioxo-3,4,6,8,12,12a-hexa-hydro-2H-pyrido[1′,2′:4,5]pyrazino[2,1-b][1,3]oxazine-9-carboxamide]
– | – | does not inhibit | does not inhibit | Nc1nc(=O)n([C@@H]2CS[C@H](CO)O2)cc1F [emtricitabine, 5-fluoro-1-(2R,5S)-[2-(hydroxymethyl)-1,3 oxathiolan-5-yl]cytosine]
